Data on 24 compounds can be found in ChEMBL document CHEMBL1148809, “Biological evaluation, structure-activity relationships, and three-dimensional quantitative structure-activity relationship studies of dihydro-beta-agarofuran sesquiterpenes as modulators of P-glycoprotein-dependent multidrug resistance” (J Med Chem, 2007).

Series [1] is described as follows: Partition coefficient, log P of the compound. In kind it is physicochemical. The conditions noted are these: octanol/water.
A further series addresses P-gp (ABCB1) (Homo sapiens, UniProt P08183). The experiment in a line: (§1) Inhibition of human Pgp-mediated DNR transport in NIH3T3 cells by microplate assay. The conditions noted are these: mouse, NIH3T3 cells expressing human P-gp, probe DNR; read-out: Imax. In kind it is cell-based, Mus musculus.
The target of series [2] is ATP-dependent translocase ABCB1 (Homo sapiens, UniProt P08183). The series is described as §1. Type of series: cell-based, Mus musculus.
ATP-dependent translocase ABCB1, sequence (P08183 whole entry): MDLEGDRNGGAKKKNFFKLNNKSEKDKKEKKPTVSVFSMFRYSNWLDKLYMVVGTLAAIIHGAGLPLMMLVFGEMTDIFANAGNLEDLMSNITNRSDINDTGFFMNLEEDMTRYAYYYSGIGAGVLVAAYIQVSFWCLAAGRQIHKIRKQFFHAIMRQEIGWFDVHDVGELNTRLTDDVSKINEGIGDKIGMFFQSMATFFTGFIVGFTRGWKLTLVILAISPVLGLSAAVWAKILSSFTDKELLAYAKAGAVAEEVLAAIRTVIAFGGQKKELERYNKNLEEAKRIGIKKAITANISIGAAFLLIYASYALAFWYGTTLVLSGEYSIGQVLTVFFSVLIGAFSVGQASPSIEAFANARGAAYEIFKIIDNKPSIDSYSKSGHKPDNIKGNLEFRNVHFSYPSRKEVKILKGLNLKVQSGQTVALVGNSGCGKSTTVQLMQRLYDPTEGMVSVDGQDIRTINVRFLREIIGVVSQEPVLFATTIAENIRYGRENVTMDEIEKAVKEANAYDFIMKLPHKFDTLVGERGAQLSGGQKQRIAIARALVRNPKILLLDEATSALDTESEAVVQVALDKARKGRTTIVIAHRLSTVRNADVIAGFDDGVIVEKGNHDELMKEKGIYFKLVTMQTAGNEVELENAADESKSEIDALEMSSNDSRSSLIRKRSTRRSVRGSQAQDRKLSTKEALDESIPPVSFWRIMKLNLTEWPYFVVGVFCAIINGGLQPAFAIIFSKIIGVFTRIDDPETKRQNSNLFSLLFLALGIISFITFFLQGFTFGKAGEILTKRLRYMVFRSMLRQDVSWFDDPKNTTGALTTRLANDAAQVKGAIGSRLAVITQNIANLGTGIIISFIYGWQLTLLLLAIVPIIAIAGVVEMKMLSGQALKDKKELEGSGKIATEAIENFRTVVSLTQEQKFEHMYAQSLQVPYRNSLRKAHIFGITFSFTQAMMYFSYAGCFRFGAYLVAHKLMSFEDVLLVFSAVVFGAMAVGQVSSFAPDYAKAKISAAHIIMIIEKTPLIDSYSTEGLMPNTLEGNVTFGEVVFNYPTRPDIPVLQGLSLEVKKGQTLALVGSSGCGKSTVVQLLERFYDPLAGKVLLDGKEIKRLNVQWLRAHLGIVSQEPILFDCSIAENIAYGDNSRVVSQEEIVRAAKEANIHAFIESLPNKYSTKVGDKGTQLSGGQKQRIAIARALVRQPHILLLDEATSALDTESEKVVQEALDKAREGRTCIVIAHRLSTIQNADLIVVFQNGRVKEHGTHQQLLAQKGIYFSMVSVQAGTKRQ

P-gp (ABCB1), sequence (P08183 whole entry): as above

Usually logP stands for a log measure of how a compound divides between an organic and an aqueous phase. For orientation: Ki means the dissociation constant of the complex between target and ligand, obtained from inhibition or displacement. For `CC(=O)O[C@H]1[C@@H](OC(=O)c2ccccc2)C[C@@](C)(O)[C@]23OC(C)(C)[C@H](C[C@H](OC(=O)c4ccco4)[C@]12C)[C@H]3OC(=O)c1cccc2ccccc12`, the logP in series [1] came out at 9.6. For the same compound, at P-gp (ABCB1), the Emax came to 54.8%. Besides, the inhibition constant (Ki) in series [2] (read-out: Ki) was 4590 nM.

On to `CC(=O)OC[C@]12[C@@H](OC(=O)c3ccco3)C[C@@H]3[C@@H](OC(C)=O)[C@]1(OC3(C)C)[C@](C)(O)C[C@H](OC(=O)c1ccco1)[C@@H]2OC(=O)c1ccco1`, for which the log partition coefficient (logP) in series [1] (read-out: LogP) is 6.5. Besides, the Emax at P-gp (ABCB1) is 99.4%. Besides, the Ki in series [2] (read-out: Ki) amounted to 4510 nM.

As for `CC(=O)OC[C@]12[C@@H](OC(=O)c3ccccc3)C[C@@H]3[C@@H](OC(=O)c4ccccc4)[C@]1(OC3(C)C)[C@H](C)C[C@H](OC(=O)c1cccnc1)[C@@H]2OC(C)=O`, the logP in series [1] (read-out: LogP) is 8.4. For the same compound, on P-gp (ABCB1), the Emax is 85.8%. The Ki in series [2] (read-out: Ki) worked out at 710 nM.

As for `CC(=O)O[C@H]1C[C@@](C)(O)[C@]23OC(C)(C)[C@H]([C@H](OC(=O)c4ccccc4)[C@H](OC(=O)c4ccccc4)[C@]2(CO)[C@H]1OC(C)=O)[C@H]3OC(C)=O`, in series [1] (read-out: LogP), the logP was found to be 6.9. Besides, on P-gp (ABCB1), the Emax was 73%. In addition, the Ki in series [2] (read-out: Ki) was found to be 7040 nM.

`CC(=O)O[C@@H]1[C@H]2[C@@H](OC(=O)c3ccccc3)[C@@H](OC(=O)c3ccccc3)[C@]3(CO)[C@@H](OC(=O)c4ccccc4)[C@@H](OC(=O)c4ccccc4)C[C@@H](C)[C@@]13OC2(C)C` gave a logP in series [1] of 11.5. For the same compound, at P-gp (ABCB1), the Emax worked out at 39.5%. Besides, the inhibitory constant (Ki) in series [2] (read-out: Ki) was 1300 nM; in series [2] (read-out: Log Ki (converted)), 1660 nM.

As to `CC(=O)OC[C@]12[C@@H](OC(=O)c3ccccc3)C[C@@H]3[C@@H](OC(C)=O)[C@]1(OC3(C)C)[C@H](C)C[C@H](OC(C)=O)[C@@H]2OC(C)=O`, the logP in series [1] (read-out: LogP) came to 5.7. For the same compound, the Emax on P-gp (ABCB1) was found to be 80.8%. In series [2] (read-out: Ki), the Ki turned out to be 2360 nM.

Turning to `CC(=O)O[C@H]1[C@@H](OC(=O)c2ccccc2)C[C@@](C)(O)[C@]23OC(C)(C)[C@H](C[C@H](OC(=O)c4ccco4)[C@]12C)[C@H]3OC(=O)C(F)(F)F`, the log partition coefficient (logP) in series [1] (read-out: LogP) came to 6.4. In addition, on P-gp (ABCB1), the Emax stood at 53.3%. Moreover, the Ki in series [2] (read-out: Ki) turned out to be 1560 nM.

`CC(=O)OC[C@]12[C@@H](OC(=O)c3ccco3)C[C@@H]3[C@@H](OC(=O)c4ccco4)[C@]1(OC3(C)C)[C@](C)(O)C[C@H](OC(C)=O)[C@@H]2OC(C)=O`: the logP in series [1] (read-out: LogP) was determined as 5.4. Moreover, the Emax at P-gp (ABCB1) is 76.9%. Further, in series [2] (read-out: Ki), the inhibitory constant (Ki) was determined as 2440 nM.

For `CC(=O)OC[C@]12[C@@H](OC(=O)c3ccccc3)C[C@@H]3[C@@H](OC(=O)c4ccccc4)[C@]1(OC3(C)C)[C@](C)(O)C[C@H](OC(C)=O)[C@@H]2OC(C)=O`, in series [1] (read-out: LogP), the logP is 7.3. In addition, the Emax on P-gp (ABCB1) stood at 100%. Moreover, the Ki in series [2] (read-out: Ki) was found to be 1500 nM.

Regarding `CCCCCO[C@H]1[C@@H](OC(=O)c2ccco2)C[C@@](C)(O)[C@]23OC(C)(C)[C@H](C[C@H](OC(=O)c4ccco4)[C@]12COC(C)=O)[C@H]3OC(C)=O`, the logP in series [1] (read-out: LogP) is 6.9. Besides, the Emax on P-gp (ABCB1) was determined as 91.3%. Moreover, the Ki in series [2] (read-out: Ki) stood at 1940 nM.

In the case of `CC(=O)OC[C@]12[C@@H](OC(=O)c3ccccc3)C[C@@H]3[C@@H](OC(=O)c4ccccc4)[C@]1(OC3(C)C)[C@](C)(O)C[C@H](OC(=O)c1cccnc1)[C@@H]2OC(C)=O`, the logP in series [1] (read-out: LogP) turned out to be 8.2. Besides, the Emax at P-gp (ABCB1) came to 100%. Besides, the Ki in series [2] (read-out: Ki) was 580 nM.

`CC(=O)OC[C@]12[C@@H](OC(=O)c3ccccc3)[C@@H](OC(=O)c3ccccc3)[C@@H]3[C@@H](OC(C)=O)[C@]1(OC3(C)C)[C@](C)(O)C[C@H](OC(C)=O)[C@@H]2OC(C)=O`: the logP in series [1] (read-out: LogP) turned out to be 7.6. The Emax at P-gp (ABCB1) came out at 97%. Further, the Ki in series [2] (read-out: Ki) is 1740 nM.

`CC(=O)O[C@@H]1[C@H]2[C@H](O)[C@H](OC(=O)c3ccccc3)[C@]3(C)[C@@H](OC(=O)c4ccccc4)[C@@H](OC(=O)c4ccccc4)C[C@@](C)(O)[C@@]13OC2(C)C`: the logP in series [1] (read-out: LogP) is 8.4. Further, the Emax at P-gp (ABCB1) was found to be 100%. Also, the Ki in series [2] (read-out: Ki) came out at 1210 nM.

Turning to `CC(=O)O[C@H]1[C@@H]2[C@@H](OC(C)=O)[C@]3(OC2(C)C)[C@H](C)C[C@H](OC(=O)c2cccnc2)[C@H](OC(=O)c2ccccc2)[C@@]3(C)[C@H]1OC(=O)c1ccccc1`, the logP in series [1] (read-out: LogP) worked out at 8.7. In addition, the Emax on P-gp (ABCB1) came to 92.3%. Besides, in series [2] (read-out: Ki), the Ki amounted to 7720 nM.

In series [1], `CC(=O)O[C@H]1[C@@H]2[C@@H](OC(C)=O)[C@@]3(OC2(C)C)[C@](C)([C@H]1OC(=O)c1ccccc1)[C@@H](OC(=O)c1ccccc1)[C@@H](OC(=O)c1ccccc1)C[C@@]3(C)O` displayed a logP of 9.4. In addition, at P-gp (ABCB1), the Emax is 80.7%. Further, the Ki in series [2] (read-out: Ki) is 11300 nM.

Consider `CC(=O)OC[C@]12[C@H](OC(=O)c3ccccc3)[C@H](OC(=O)c3ccccc3)[C@@H]3[C@@H](OC(C)=O)[C@]1(OC3(C)C)[C@H](C)C[C@H](OC(=O)c1ccccc1)[C@@H]2OC(C)=O`, for which the logP in series [1] was determined as 10.3. The Emax on P-gp (ABCB1) came to 100%. In addition, the Ki in series [2] (read-out: Ki) came out at 33800 nM.

As to `CC(=O)OC[C@]12[C@@H](OC(=O)c3ccccc3)C[C@@H]3[C@@H](OC(C)=O)[C@]1(OC3(C)C)[C@H](C)C[C@H](OC(=O)c1ccccc1)[C@@H]2OC(C)=O`, the logP in series [1] (read-out: LogP) was found to be 7.7. Besides, the Emax on P-gp (ABCB1) was 88%. The Ki in series [2] (read-out: Ki) turned out to be 630 nM.

`CC(=O)OC[C@]12[C@@H](OC(=O)c3ccccc3)C[C@@H]3[C@@H](OC(C)=O)[C@]1(OC3(C)C)[C@](C)(O)C[C@H](OC(C)=O)[C@@H]2OC(C)=O`: the logP in series [1] (read-out: LogP) was 5. Further, the Emax on P-gp (ABCB1) was found to be 85%. Moreover, the figures for the Ki in series [2] (read-out: Ki) and in series [2] (read-out: Log Ki (converted)) were 4390 nM and 3470 nM, respectively.

In series [1], `CC(=O)O[C@H]1C[C@@](C)(O)[C@]23OC(C)(C)[C@H]([C@H](OC(=O)c4ccccc4)[C@H](OC(=O)c4ccccc4)[C@]2(C)[C@H]1OC(=O)c1ccccc1)[C@H]3OC(C)=O` had a log partition coefficient (logP) of 9.2. Besides, the Emax at P-gp (ABCB1) is 84.9%. Besides, the inhibition constant Ki in series [2] (read-out: Ki) was found to be 910 nM.

On to `CC(=O)OC[C@@]12[C@@H](OC(=O)c3ccccc3)CC[C@@](C)(O)[C@]13OC(C)(C)[C@H]([C@@H](OC(=O)c1ccccc1)[C@H]2OC(=O)c1ccccc1)[C@H]3OC(C)=O`, for which the lipophilicity (logP) in series [1] is listed as 9.6. Also, the Emax at P-gp (ABCB1) came to 100%. In series [2] (read-out: Ki), the Ki is 1220 nM.

For `CC(=O)OC[C@]12[C@@H](OC(=O)c3ccccc3)[C@@H](OC(=O)c3ccccc3)[C@@H]3[C@@H](OC(C)=O)[C@]1(OC3(C)C)[C@H](C)C[C@H](OC(C)=O)[C@@H]2OC(C)=O`, in series [1] (read-out: LogP), the logP was 8.3. In addition, on P-gp (ABCB1), the Emax is 86.2%. Also, the Ki in series [2] (read-out: Ki) was determined as 1710 nM.

Consider `CCCCCO[C@@H]1[C@@H]2[C@@H](OC(C)=O)[C@@]3(OC2(C)C)[C@@](COC(C)=O)([C@@H](OC(C)=O)CC[C@@]3(C)O)[C@@H]1OC(=O)c1ccccc1`, for which the logP in series [1] (read-out: LogP) worked out at 7. Also, the Emax at P-gp (ABCB1) stood at 87.7%. Also, the Ki in series [2] (read-out: Ki) is 1830 nM.

`CC(=O)O[C@H]1[C@@H](OC(=O)c2ccccc2)C[C@@](C)(O)[C@]23OC(C)(C)[C@H](C[C@H](OC(=O)c4ccco4)[C@]12C)[C@H]3OC(=O)C(C)(C)C`: the logP in series [1] (read-out: LogP) was 7.3. In addition, the Emax on P-gp (ABCB1) was 90%. Moreover, the Ki in series [2] (read-out: Ki) turned out to be 1040 nM.

On to `CC(=O)OC[C@]12[C@H](OC(=O)c3ccccc3)C(=O)[C@@H]3[C@@H](OC(C)=O)[C@]1(OC3(C)C)[C@H](C)C[C@H](OC(C)=O)[C@@H]2OC(=O)c1ccccc1`, for which the logP in series [1] (read-out: LogP) amounted to 8.1. The Emax on P-gp (ABCB1) amounted to 81.6%. For the same compound, the Ki in series [2] (read-out: Ki) worked out at 1630 nM.
